Several values for one entry are separate records, joined by “and”; a condition that tells them apart may be missing. Identical values can stand only once.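 Assay format: 96-well plates, 48-hour exposure. GI50 marks 50% less growth. TGI: total growth inhibition.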
What was measured:
Assay in all cases: growth of human tumour cells (NCI), 48 h
786-0 renal = system: 786-0 renal
A549 NSCLC = system: A549 NSCLC
ACHN renal = system: ACHN renal
BT-549 breast = system: BT-549 breast
CAKI-1 renal = system: CAKI-1 renal
CCRF-CEM leukemia = system: CCRF-CEM leukemia
COLO 205 colon = system: COLO 205 colon
DU-145 prostate = system: DU-145 prostate
EKVX NSCLC = system: EKVX NSCLC
HCC-2998 colon = system: HCC-2998 colon
HCT-116 colon = system: HCT-116 colon
HCT-15 colon = system: HCT-15 colon
HL-60(TB) leukemia = system: HL-60(TB) leukemia
HOP-62 NSCLC = system: HOP-62 NSCLC
HT29 colon = system: HT29 colon
K-562 leukemia = system: K-562 leukemia
KM12 colon = system: KM12 colon
LOX IMVI melanoma = system: LOX IMVI melanoma
M14 melanoma = system: M14 melanoma
MALME-3M melanoma = system: MALME-3M melanoma
MCF7 breast = system: MCF7 breast
MDA-MB-231 breast = system: MDA-MB-231 breast
MDA-MB-435 = system: MDA-MB-435
MOLT-4 leukemia = system: MOLT-4 leukemia
NCI-H23 lung = system: NCI-H23 lung
NCI-H460 lung = system: NCI-H460 lung
NCI/ADR-RES ovarian = system: NCI/ADR-RES ovarian
OVCAR-3 ovarian = system: OVCAR-3 ovarian
OVCAR-4 ovarian = system: OVCAR-4 ovarian
OVCAR-5 ovarian = system: OVCAR-5 ovarian
OVCAR-8 ovarian = system: OVCAR-8 ovarian
PC-3 prostate = system: PC-3 prostate
RPMI-8226 leukemia = system: RPMI-8226 leukemia
RXF 393 renal = system: RXF 393 renal
SF-268 CNS = system: SF-268 CNS
SF-295 CNS = system: SF-295 CNS
SK-MEL-2 melanoma = system: SK-MEL-2 melanoma
SK-MEL-28 melanoma = system: SK-MEL-28 melanoma
SK-MEL-5 melanoma = system: SK-MEL-5 melanoma
SN12C renal = system: SN12C renal
SNB-19 CNS = system: SNB-19 CNS
SNB-75 CNS = system: SNB-75 CNS
SR leukemia = system: SR leukemia
TK-10 renal = system: TK-10 renal
U251 CNS = system: U251 CNS
UACC-257 melanoma = system: UACC-257 melanoma
UO-31 renal = system: UO-31 renal
HOP-92 NSCLC = system: HOP-92 NSCLC
HS 578T breast = system: HS 578T breast
NCI-H226 lung = system: NCI-H226 lung
SK-OV-3 ovarian = system: SK-OV-3 ovarian
SW-620 colon = system: SW-620 colon
A498 renal = system: A498 renal
IGROV1 ovarian = system: IGROV1 ovarian

O=c1[nH]nc(NCCc2ccccc2)c2nnn(Cc3ccccc3)c12
TGI (786-0 renal): > 100 µM
TGI (A549 NSCLC): > 100 µM
TGI (ACHN renal): > 100 µM
TGI (BT-549 breast): > 100 µM
TGI (CAKI-1 renal): > 100 µM
TGI (CCRF-CEM leukemia): > 100 µM
TGI (COLO 205 colon): > 100 µM
TGI (DU-145 prostate): > 100 µM
TGI (EKVX NSCLC): > 100 µM
TGI (HCC-2998 colon): > 100 µM
TGI (HCT-116 colon): > 100 µM
TGI (HCT-15 colon): > 100 µM
TGI (HL-60(TB) leukemia): > 100 µM
TGI (HOP-62 NSCLC): > 100 µM
TGI (HT29 colon): > 100 µM
TGI (K-562 leukemia): > 100 µM
TGI (KM12 colon): > 100 µM
TGI (LOX IMVI melanoma): > 100 µM
TGI (M14 melanoma): > 100 µM
TGI (MALME-3M melanoma): > 100 µM
TGI (MCF7 breast): > 100 µM
TGI (MDA-MB-231 breast): > 100 µM
TGI (MDA-MB-435): > 100 µM
TGI (MOLT-4 leukemia): > 100 µM
TGI (NCI-H23 lung): > 100 µM
TGI (NCI-H460 lung): > 100 µM
TGI (NCI/ADR-RES ovarian): > 100 µM
TGI (OVCAR-3 ovarian): > 100 µM
TGI (OVCAR-4 ovarian): > 100 µM
TGI (OVCAR-5 ovarian): > 100 µM
TGI (OVCAR-8 ovarian): > 100 µM
TGI (PC-3 prostate): > 100 µM
TGI (RPMI-8226 leukemia): > 100 µM
TGI (RXF 393 renal): > 100 µM
TGI (SF-268 CNS): > 100 µM
TGI (SF-295 CNS): > 100 µM
TGI (SK-MEL-2 melanoma): > 100 µM
TGI (SK-MEL-28 melanoma): > 100 µM
TGI (SK-MEL-5 melanoma): > 100 µM
TGI (SN12C renal): > 100 µM
TGI (SNB-19 CNS): > 100 µM
TGI (SNB-75 CNS): > 100 µM
TGI (SR leukemia): > 100 µM
TGI (TK-10 renal): > 100 µM
TGI (U251 CNS): > 100 µM
TGI (UACC-257 melanoma): > 100 µM
TGI (UO-31 renal): > 100 µM

C/C(=C\C(=N\N=C(N)N)c1ccc(Cl)cc1)c1ccc(Cl)cc1
GI50 (A549 NSCLC): 0.424 µM
TGI (A549 NSCLC): 1.56 µM
GI50 (ACHN renal): 0.0424 µM
TGI (ACHN renal): 1.51 µM
GI50 (CCRF-CEM leukemia): 0.112 µM
TGI (CCRF-CEM leukemia): 1.94 µM
GI50 (COLO 205 colon): 0.0198 µM
TGI (COLO 205 colon): 0.0343 µM
GI50 (DU-145 prostate): 0.146 µM
TGI (DU-145 prostate): 1.5 µM
GI50 (HCT-116 colon): 0.251 µM
TGI (HCT-116 colon): 0.712 µM
GI50 (HL-60(TB) leukemia): 2.03 µM
TGI (HL-60(TB) leukemia): 3.78 µM
GI50 (HOP-62 NSCLC): 0.0454 µM
TGI (HOP-62 NSCLC): 1.62 µM
GI50 (HOP-92 NSCLC): 0.918 µM
TGI (HOP-92 NSCLC): 2.31 µM
GI50 (HS 578T breast): 2.08 µM
TGI (HS 578T breast): 4.55 µM
GI50 (KM12 colon): 1.35 µM
TGI (KM12 colon): 2.69 µM
GI50 (MOLT-4 leukemia): 0.276 µM
TGI (MOLT-4 leukemia): 0.95 µM
GI50 (NCI-H226 lung): 2.17 µM
TGI (NCI-H226 lung): 4.75 µM
GI50 (NCI-H460 lung): 1.3 µM
TGI (NCI-H460 lung): 2.66 µM
GI50 (OVCAR-3 ovarian): 1.72 µM
TGI (OVCAR-3 ovarian): 3.21 µM
GI50 (OVCAR-8 ovarian): 1.18 µM
TGI (OVCAR-8 ovarian): 2.9 µM
GI50 (PC-3 prostate): 1.29 µM
TGI (PC-3 prostate): 2.69 µM
GI50 (RPMI-8226 leukemia): 2.19 µM
TGI (RPMI-8226 leukemia): 5.14 µM
GI50 (RXF 393 renal): 1.71 µM
TGI (RXF 393 renal): 3.1 µM
GI50 (SF-268 CNS): 1.37 µM
TGI (SF-268 CNS): 3.06 µM
GI50 (SK-OV-3 ovarian): 1.69 µM
TGI (SK-OV-3 ovarian): 3.08 µM
GI50 (SNB-75 CNS): 1.48 µM
TGI (SNB-75 CNS): 2.91 µM
GI50 (SW-620 colon): 0.47 µM
TGI (SW-620 colon): 1.73 µM
GI50 (U251 CNS): 0.924 µM
TGI (U251 CNS): 2.14 µM
GI50 (UO-31 renal): 1.44 µM
TGI (UO-31 renal): 2.85 µM

C/C=C/C[C@@H](C)C(=O)C1C(=O)N[C@@H](C(C)C)C(=O)N(C)CC(=O)N(C)[C@@H](CC(C)C)C(=O)N[C@@H](C(C)C)C(=O)N(C)[C@@H](CC(C)C)C(=O)N[C@@H](C)C(=O)N[C@@H](C)C(=O)N(C)[C@@H](CC(C)C)C(=O)N(C)[C@@H](CC(C)C)C(=O)N(C)[C@@H](C(C)C)C(=O)N1C (stereo not given in full)
GI50 (A498 renal): 50.4 µM
TGI (A498 renal): 71.5 µM
TGI (HOP-92 NSCLC): > 20.5 µM
GI50 (IGROV1 ovarian): 20.8 µM
TGI (IGROV1 ovarian): 65.6 µM
GI50 (MALME-3M melanoma): 75.8 µM
GI50 (NCI-H226 lung): 45.3 µM
TGI (NCI-H226 lung): 18.4 µM and 83.2 µM
GI50 (NCI-H23 lung): 47 µM
TGI (NCI-H23 lung): > 20.5 µM
GI50 (SK-MEL-2 melanoma): 40.8 µM
TGI (SK-MEL-2 melanoma): 76.3 µM
GI50 (UACC-257 melanoma): 45.5 µM
TGI (UACC-257 melanoma): > 20.5 µM and 67 µM

COc1ccc2nc3cc(Cl)ccc3c(N)c2c1
GI50 (HCT-15 colon): 0.713 µM
TGI (HCT-15 colon): 2.97 µM
GI50 (HS 578T breast): 2.86 µM
TGI (HS 578T breast): > 100 µM
GI50 (M14 melanoma): 1.94 µM
TGI (M14 melanoma): 3.71 µM
GI50 (OVCAR-5 ovarian): 2.09 µM
TGI (OVCAR-5 ovarian): 3.66 µM
GI50 (SK-MEL-28 melanoma): 2.01 µM
TGI (SK-MEL-28 melanoma): 3.51 µM
GI50 (SR leukemia): 0.236 µM
TGI (SR leukemia): 0.591 µM
GI50 (UACC-257 melanoma): 1.93 µM
TGI (UACC-257 melanoma): 3.48 µM

Source: PubChem BioAssay (NCI)
